According to patent US6716858B1, “Methods for inhibiting diabetic complications” (Kansas University Medical Center, priority 1995, dated 2004):
Where two headings read alike, the source gives them in different places.

Tests used:
[1] = Drug and metabolite levels in plasma and urine, STZ diabetic rat study; type: in vivo; conditions: for concentration at 28 weeks / concentration at 21 week: rat, plasma, oral; for concentration at 28 weeks: diabetic animals; for concentration at 21 week: week 21, 4 animals, read-out: Pyridoxamine in plasma
Protocol: (§1) Animal studies. Diabetes was induced by a single tail vein injection of 45 mg/kg of STZ in 0.1 M sodium citrate buffer, pH 4.5. Control animals were sham injected with buffer only. Diabetes was confirmed by measuring blood glucose levels at 2 and 3 days after the STZ-injection. Animals with plasma glucose higher than 16 mM were classified as diabetic. The diabetic rats were divided randomly into an untreated diabetic group (n=12) and two diabetic treatment groups, receiving either PM (n=13) or AG (n=12) at 1 g/L in drinking water. Two non-diabetic control groups were included, one receiving no treatment (n=13), the other receiving PM(HCl)2 at 2 g/L in drinking water (n=12); the higher dose of PM in the PM-treated control group was designed to compensate, in part, for the lower water intake of non-diabetic, compared to diabetic animals. All animals were housed individually with a light dark cycle of 12 hours each, and had free access to food and water. To maintain body weight and to limit hyperglycemia, diabetic animals received 3 IU of ultralente insulin (Humulin U, Eli Lilly) three times per week; this was increased to 5 IU after week 15 to adjust for the increase in body weight.
Measurement of drug levels in plasma and urine. PM and AG concentrations in plasma were measured by reverse phase high performance liquid chromatography (RP-HPLC). PM and its B6 vitamers were assayed as described by Sampson and O'Connor (Nutrition Res. 9:259-272 (1989)) and Sakurai et al. (J. Nutr. Sci. Vitaminol. 37:341-348 (1991)), using 293/393 nm excitation and emission wavelengths. AG was quantified at 380 nm as the 4-nitrobenzaldehyde conjugate (Beaven et al. 1969. J. Pharmacol. Exp. Therapeutics 165:14-22).

[2] = system: streptozotocin-induced diabetic rat; assay: STZ diabetic rat model, AGEs and crosslinking of collagen; type: in vivo; conditions: for CML, CEL or pentosidine content of kidney collagen / gain in kidney weight / FL in skin collagen, below untreated diabetic animals / decrease of CML, CEL and fluorescence content of skin collagen toward non-diabetic levels / reduction of half-time for digestion of collagen toward normal / body weight / CML concentration in skin collagen / half-time for pepsin digestion of skin collagen / CEL in renal basement membrane collagen / CML in renal basement membrane collagen / Pentosidine in renal basement membrane collagen: diabetic rats; for FL in skin collagen, below untreated diabetic animals: 1 g/L in drinking water, week 28; for decrease of CML, CEL and fluorescence content of skin collagen toward non-diabetic levels / reduction of half-time for digestion of collagen toward normal: 7 months of diabetes; for body weight: 28 weeks; for CML concentration in skin collagen: drug in drinking water, end of study, untreated diabetic 0.124±0.01, non-diabetic 0.057±0.01; for half-time for pepsin digestion of skin collagen: control 90, untreated diabetic 450; for CEL in renal basement membrane collagen: untreated diabetic 0.08 ±0.01; for CML in renal basement membrane collagen: untreated diabetic 0.25 ± 0.04; for Pentosidine in renal basement membrane collagen: untreated diabetic 3.17 ± 1.10; for decrease in collagen-linked fluorescence toward values in non-diabetic rats: skin collagen
Protocol: as §1
Glycemic control. Glycemia was monitored by measurement of plasma glucose and glycated hemoglobin every four weeks, using a Sigma Trinder assay Kit (Sigma # 315). Blood (non-fasting) was obtained from the tail vein, using heparinized microhematocrit tubes, followed by sedimentation of red blood cells (RBC) in a bench-top microhematocrit centrifuge. A sample of plasma (5 μL) or glucose standard was mixed with 300 μL of reagent in a 96-well microtiter plate. The plate was shaken for 18 min and the absorbance at 490 nm was measured in a Wallac Victor 1420 multilabel counter (Wallac Inc. Gaithersburg, Md.). Glycated hemoglobin (GlcHb) was measured on whole blood by boronate affinity chromatography using a Sigma kit for total glycated hemoglobin (Sigma # 442-B).
Necropsy and tissue sampling. Rats were treated according to the guidelines of the Institutional Animal Care and Use Committee of the University of South Carolina. Blood was drawn from anaesthetized (halothane) rats by heart puncture and transferred into heparinized vacutainer tubes on ice; an aliquot was removed for analysis of glycated hemoglobin. Rats were then killed by over-anesthetization, and liver and kidneys were removed, the kidney decapsulated, and both organs rinsed in PBS buffer, and weighed. The right kidney was cut in half transversely, and one half was removed for fixation for electron and light microscopy. The remainder of the right kidney and the whole left kidney were frozen at −70° C. until processed for isolation of collagen. Abdominal skin (2 cm^2) was also removed, rinsed in phosphate buffered saline (PBS) and stored at −70° C. Blood was separated into plasma and RBC within 30 minutes by centrifugation in a refrigerated benchtop centrifuge. RBCs were lysed in an equal volume of deionized water, and plasma and RBC lysates were stored at −70° C.
Isolation and analysis of collagen. The insoluble fraction of skin collagen was prepared by scraping the skin with a single-edged razor blade to remove hair and adventitious tissue, followed by a series of extractions with 0.5 M NaCl, 0.5 M acetic acid and chloroform/methanol (2:1 v/v), as described previously (Dyer, et al. 1993. J. Clin. Invest. 91:2463-2469). Total renal collagen was prepared from ˜1.5 kidneys by an adaptation of the procedure of Fox et al. (J. Biol. Chem. 256:9313-9315 (1981)). Briefly, kidneys were minced and homogenized with a hand-held glass homogenizer in 10 mL of ice-cold water, containing 1 mM EDTA and 0.05% sodium azide. Remaining intact cells and subcellular organelles were then lysed by addition of another 15 mL of water, followed by incubation for 1 hour at 4° C., then centrifugation of the lysate for 30 minutes at 10,000 rpm at 4° C. in a Beckman (Palo Alto, Calif.) J-21 centrifuge. […]

## N=C(N)NN [aminoguanidine, reference compound]
[1]; 1 g/L in drinking water
  concentration at 28 weeks: 87 ± 10 µM
[2]
  CML, CEL or pentosidine content of kidney collagen: not a significant decrease
  gain in kidney weight: partially inhibit the gain in kidney weight
  FL in skin collagen, below untreated diabetic animals: ~12%
  decrease of CML, CEL and fluorescence content of skin collagen toward non-diabetic levels: ~50%
  reduction of half-time for digestion of collagen toward normal: ~25%
  body weight: weighed slightly less than the untreated diabetic group
  CML concentration in skin collagen: 0.10±0.02 mmol/mol lysine
  half-time for pepsin digestion of skin collagen: 300 min
  CEL in renal basement membrane collagen: 0.07 ± 0.008^C mmol/mol Lys
  CML in renal basement membrane collagen: 0.24 ± 0.05 mmol/mol Lys
  Pentosidine in renal basement membrane collagen: 2.47 ± 0.64^D μmol/mol Lys
  decrease in collagen-linked fluorescence toward values in non-diabetic rats: ~40%

## Cc1ncc(CO)c(CN)c1O [pyridoxamine]
[1]; 23 weeks, PM intake 801±22 μmol/day
  urinary PM: 824 ± 44 µmol/day
[1]; non-diabetic animals, PM(HCl)2 2 g/L in drinking water, from first week
  plasma PM concentration: ~6 µM
[1]; 1 g/L in drinking water, Diabetic + PM (1 g/L)
  concentration at 21 week: 76 ± 18 µM
[1]; 2 g/L in drinking water, Control + PM (2 g/L)
  concentration at 21 week: 6.3 ± 2.1 µM
[1]; 1 g/L in drinking water
  concentration at 28 weeks: 106 ± 17 µM
[2]
  CML, CEL or pentosidine content of kidney collagen: not a significant decrease
  gain in kidney weight: partially inhibit the gain in kidney weight
  FL in skin collagen, below untreated diabetic animals: ~12%
  decrease of CML, CEL and fluorescence content of skin collagen toward non-diabetic levels: ~50%
  reduction of half-time for digestion of collagen toward normal: ~25%
  body weight: weighed slightly less than the untreated diabetic group
  CML concentration in skin collagen: 0.092±0.02 mmol/mol lysine
  half-time for pepsin digestion of skin collagen: 350 min
  CEL in renal basement membrane collagen: 0.08 ± 0.008 mmol/mol Lys
  CML in renal basement membrane collagen: 0.23 ±0.03 mmol/mol Lys
  Pentosidine in renal basement membrane collagen: 3.00 ± 0.90 μmol/mol Lys
  decrease in collagen-linked fluorescence toward values in non-diabetic rats: ~40%
